{"source": "patent US20100041630A1", "about": "“Methods for Treating or Preventing Inflammation Using a Glycerophosphate Salt” (PRELIEF INC., priority 2007, published 2010)", "system": "rats with inflammatory condition associated with polyarthritis", "test": "Therapeutic effectiveness in rats with polyarthritis induced by heat-killed Mycobacterium tuberculosis", "format": "in vivo", "conditions": "therapeutically effective amount, injection 1 to 5 times a day for 3-10 days, polyarthritic rats", "data": [{"substance": "calcium glycerophosphate [CGP]", "values": [{"measurement": "reduction of the overall arthritis score", "value": "at least 20%"}]}]}
